How the values were obtained:
[1] = test system: ERK activation/phosphorylation in cells expressing WT and mutant BRAF or PTPN11; test: pERK levels in Ea.hy926 cells expressing WT and mutant BRAF or PTPN11, MEK inhibitor titration; type: cell-based, human; details: cells expressing WT and mutant BRAF or PTPN11, FIGS. 4 and 5
From the text: A cellular model for studying the effects of potential ERK-activating mutations was developed. We have retrovirally expressed wild-type and mutant versions of proteins in the cell line Ea.hy926. The Ea.hy926 cell line is a fusion of human umbilical vein endothelial cells with a […] cell line. It is immortalized and retains some characteristics of endothelial cells.
In an effort to identify inhibitors with greater therapeutic efficacy, we have treated cells expressing WT and mutant BRAF or PTPN11 with various MEK inhibitors. […] BRAF F486S consistently induces ERK activation over WT levels, although the specific fold increase varies from gel to gel.

[2] = test system: HDLECs expressing ARAF mutation S214P; test: Immunofluorescence staining and western blotting of HDLECs expressing ARAF-S214P; type: cell-based, human; details: for biochemical and morphological reversal of the effects induced by the ARAF mutation / cell morphological differences induced by ARAF-S214P: HDLECs; for VE-cadherin accumulation at the cell membrane / levels of pERK: HDLECs expressing ARAF-S214P
From the text: We developed a cellular model to better understand and study the effects of potential ERK-activating mutations was developed by using primary lymphatic endothelial cells instead of established cell lines to capture the characteristics of mutations in the disease relevant cell type. We have retrovirally expressed wild-type and mutant versions of proteins in the human dermal lymphatic endothelial cells (HDLECs).
The ARAF sequence, from pCDNA3.1-F2S2-ARAF-WT or -S214P constructs as previously indicated, was cut with BamHI/XhoI and introduced into the BglII/XhoI sites of a modified version of the pMSCV plasmid that contains aminoterminal FLAG and HA tags. Viral production was performed using Fugene, with 8 μg of total DNA (pMSCV-ARAF-WT or -S214P together with envelope and packaging plasmids) and 18 μl of the transfection reagent in HEK293T. After 72 h, viral supernatant was collected and filtered. HDLECs were infected by replacing the cell culture medium with the viral supernatant, supplemented with 8 μg ml^−1 Polybrene and filtered through a 0.45 μm filter. Cells were spinfected at 650 g for 90 min, and subsequently cultured for 6 h at which point the viral supernatant was replaced by standard culture medium. Transduced HDLECs were cultured for 48 h before use in experiments. Transduction efficiencies observed by HA staining were between 40% and 60%.
Round (12 mm) coverslips (VWR) were coated with 0.1% gelatin in water for 10 min in 24-well plates (Corning), and then air-dried for 15 min. […] Cells were washed in warm serum-free Dulbecco's modified Eagle's medium and fixed in 4% paraformaldehyde. Fixed cells were washed twice with PBS and twice with 0.1% BSA in PBS. Cells were permeablized and blocked by incubation with 10% normal donkey serum (Jackson Immunoresearch) and 0.3% Triton X-100 (Sigma Aldrich) in PBS. VE-cadherin antibody (Thermo Fisher Scientific) was diluted (final concentration: 2 μg ml^−1) in 0.01% normal donkey serum, 0.1% BSA and 0.3% Triton X-100 in PBS, and staining was performed for 1 h. Coverslips were washed twice with 0.1% BSA in PBS. Goat-anti-rabbit Alexa546 (Thermo Fisher Scientific; final concentration: 8 μg ml-1) and phalloidin Alexa350 (Thermo Fisher Scientific; final concentration: 5 units ml-1) were diluted in 0.01% normal donkey serum, 0.1% BSA and 0.3% Triton X-100 in PBS, and staining was performed for 1 h. When used, HA-Tag (6E2) mouse antibody (cat. no. 2367, Cell Signaling Technology) was diluted 1:100 in 0.1% BSA and 0.3% Triton X-100 in PBS, and staining was performed for 1 h. Coverslips were washed twice with 0.1% BSA in PBS and twice with PBS. Coverslips were dipped in water to remove residual salts, and mounted to slides using Prolong Gold antifade reagent (Thermo Fisher Scientific). Image acquisition was performed on a Leica DM6000 motorized upright microscope with a Photometrics HQ2 high-resolution monochrome CCD (charge-coupled device) camera using LAS AF software (Leica Microsystems). Z-stacks were acquired at ×10 magnification. Images were further processed in the Fiji software package42. Brightness and contrast adjustments were made. Identical brightness and contrast settings were applied to all images. Fluorescence values were measured in regions of interest (ROIs) drawn to contain entire individual cells, or in ROIs drawn to contain the entire cell body but exclude the cell-cell junction. From those measured values, a value for the plasma membrane was derived (total cell-intracellular), and the ratio of plasma membrane to intracellular values was derived and plotted. Additionally, the length and width of cells were measured with the line tool and ROI manager. For both analyses, five clearly ARAF-expressing cells, as determined by HA staining, were analyzed per ×10 field. Five ×10 fields were acquired per condition per experiment. Experiments were conducted with cells from 3 independent thaws and transductions of HDLECs, for a total of 75 cells per condition. […]

[3] = test system: zebrafish larvae overexpressing KRAS-G12D mutant in lymphatics; test: Zebrafish model overexpressing KRAS-G12D in lymphatics; type: in vivo; details: FIG. 19
MM cell lines = details: units printed inside the range; cited from earlier work
[4] = test system: Abl1, AKT3, c-RAF, CamK1, CDK2, c-Met; details: cited from earlier work
mTOR = mTOR (Homo sapiens, UniProt P42345); details: cell-free assays; cited from earlier work

O=C(NC[C@H](O)CO)c1ccncc1Nc1ccc(I)cc1F [Pimasertib (AS-703026), Pimasertib]
pERK levels, titration curves [1]: reducing pERK levels in cells in a dose dependent manner | biochemical and morphological reversal of the effects induced by the ARAF mutation [2]: reversal | cell morphological differences induced by ARAF-S214P [2]: rescued | VE-cadherin accumulation at the cell membrane [2]: increased | levels of pERK [2]: reduced | disorganized lymphatic branching [3]: improvement | edema [3]: decrease | IC50 (MM cell lines): 5 to 2000 nM

Cn1c(=O)c(F)c(Nc2ccc(I)cc2F)c2c(=O)n(C[C@@H](O)CO)cnc21 [TAK-733]
biochemical and morphological reversal of the effects induced by the ARAF mutation [2]: reversal | cell morphological differences induced by ARAF-S214P [2]: rescued | VE-cadherin accumulation at the cell membrane [2]: increased | levels of pERK [2]: reduced | disorganized lymphatic branching [3]: improvement | edema [3]: decrease | activity to Abl1, AKT3, c-RAF, CamK1, CDK2, c-Met, etc. [4]: inactive to Abl1, AKT3, c-RAF,

CO[C@H]1C[C@@H]2CC[C@@H](C)[C@@](O)(O2)C(=O)C(=O)N2CCCC[C@H]2C(=O)O[C@H]([C@H](C)C[C@@H]2CC[C@@H](OCCO)[C@H](OC)C2)CC(=O)[C@H](C)/C=C(\C)[C@@H](O)[C@@H](OC)C(=O)[C@H](C)C[C@H](C)/C=C/C=C/C=C/1C [Everolimus (RAD001), Everolimus]
IC50 (mTOR): 1.6 to 2.4 nM

— US12365946B2, “Compositions and methods for the diagnosis and treatment of lymphatic system disorders” (THE CHILDREN'S HOSPITAL OF PHILADELPHIA, priority 2018, dated 2025)
